For the experiment, the system named is Hep G2 hepatoma cells. As to the kind of experiment: Drymifolia leaf extract bioassay: cholesterol secretion by hepatoma cells (AMPLEX RED cholesterol kit). The format is cell-based. The conditions noted are these: for activity at 25 µg/mL: HepG2, Conc. 25 μg/ml. As for the experimental part:
To measure cholesterol secretion by hepatoma cells following treatment by drymifolia leaf extract prepared in accordance with the present invention, a bioassay was performed. Samples for the bioassay were prepared by weighing out 100 mg of the spray dried powders of drymifolia leaf extracts. A 50 mg/ml total extract of the sample was then prepared by sequential addition of DMSO:ethanol:water in a ratio of 5:3:2. For example, for 100 mg of powder, 1 ml DMSO, 0.6 ml ethanol, and 0.4 ml water would be used. To prepare dilutions of sample for testing, the samples were diluted from the stock concentration of 50 mg/ml to test concentrations (i.e. 400, 200, 100 μg/ml) in tissue culture media. For the 400 μg/ml concentration, 8 μl of stock solution added to 992 μl tissue culture media would yield 400 μg/ml. From there, serial two fold dilutions would result in the remaining test concentration. Hep G2 hepatoma cells (ATCC, Manassas, Va.) were plated at 2×10^5/well in standard 24 well tissue culture plates. Following plating, the cells were incubated overnight. The next day, the media in the wells was aspirated and replaced with fresh media containing the diluted sample. Stock solutions of the samples were prepared as total extracts at 50 mg/ml. The samples were then diluted in tissue culture media just prior to adding to the cells. The cells were again incubated overnight with the samples. Then, the supernatant fluids were tested for the presence of cholesterol using the AMPLEX RED cholesterol kit (Molecular Probes, Eugene, Oreg.). The kit measures total cholesterol in the supernatants following enzymatic conversion of any cholesterol esters to free cholesterol using cholesterol esterase. The effect of the samples is calculated by dividing the mean relative fluorescence derived from the test samples by the mean relative fluorescence of untreated controls.
LIPITOR® and pure rutin samples were prepared in the same manner as the drymifolia leaf extract in the bioassay. The drymifolia leaf extract samples performed as well as or better than LIPITOR®. […] Pure rutin in the amount equivalent to the amount found in the lots 3193, 3194, 3811, and 3831 was tested. More specifically, the amount of rutin found in the lots was 3.44 mg/g, 4.36 mg/g, 4.42 mg/g and 4.13 mg/g, respectively. At the highest concentration of the drymifolia leaf extract samples tested (which was 400 ug/ml), there could be up to 25 ug/ml of rutin. Thus, the amount of pure rutin used in the bioassay was 3.125 to 25 ug/ml. […]

[1] abbreviates: Homo sapiens, read-out: % ctrl (cholesterol release).

The record followed here is patent US20050208163A1, “Compositions containing avocado leaf extract for lowering cholesterol levels” (priority 2002, published 2005).

On to `CC(C)c1c(C(=O)Nc2ccccc2)c(-c2ccccc2)c(-c2ccc(F)cc2)n1CC[C@@H](O)C[C@@H](O)CC(=O)O` [LIPITOR ®, atorvastatin], for which the “Mean (relative fluorescence, cholesterol release)” value by setting is: (Conc. 25 μg/ml) 18308.5; (Conc. 50 μg/ml) 18591; (Conc. 100 μg/ml) 16871.5; (Conc. 200 μg/ml) 16378. Further, under setting [1], the activity at 25 µg/mL is 99.2%. In addition, the activity at 50 µg/mL (Homo sapiens, HepG2, Conc. 50 μg/ml, read-out: % ctrl (cholesterol release)) amounted to 101%. Moreover, the activity at 100 µg/mL (Homo sapiens, HepG2, Conc. 100 μg/ml, read-out: % ctrl (cholesterol release)) worked out at 91.5%. Further, under “Homo sapiens, HepG2, Conc. 200 μg/ml, read-out: % ctrl (cholesterol release)”, the activity at 200 µg/mL was 88.8%.

For the molecule `C[C@@H]1O[C@@H](OC[C@H]2O[C@@H](Oc3c(-c4ccc(O)c(O)c4)oc4cc(O)cc(O)c4c3=O)[C@H](O)[C@@H](O)[C@@H]2O)[C@H](O)[C@H](O)[C@H]1O` [Pure Rutin, rutin], the “Mean (relative fluorescence, cholesterol release)” value runs as follows: (Conc. 3.125 μg/ml) 18609.5; (Conc. 6.25 μg/ml) 19069; (Conc. 12.5 μg/ml) 17835; (Conc. 25 μg/ml) 16817.5. Also, where the note is “Homo sapiens, HepG2, Conc. 3.125 μg/ml, read-out: % ctrl (cholesterol release)”, the activity at 3.125 µg/mL came out at 101%. The activity at 6.25 µg/mL (Homo sapiens, HepG2, Conc. 6.25 μg/ml, read-out: % ctrl (cholesterol release)) stood at 103%. Further, the activity at 12.5 µg/mL (Homo sapiens, HepG2, Conc. 12.5 μg/ml, read-out: % ctrl (cholesterol release)) came out at 96.7%. The activity at 25 µg/mL under setting [1] turned out to be 91.2%.
